The values below come from patent US20100144626A1, “Treatment of Multi-Drug Resistant Bacterial Infections” (priority 2006, published 2010).

Each structure is given as a SMILES string. In brackets after ≈: the same amount, converted by molar mass.

For data set [1], the system named is Enterococcus faecalis (VRE) E8 VanA. Put plainly: MIC, agar dilution (BSAC guidelines). The data set is classed as cell-based. The settings on record: Table 2, E. faecalis (VRE) E8 VanA, read-out: Minimum inhibitory concentration (MIC). As to the method:
(§1) In example experiments miconazole nitrate, was dissolved in methanol and econazole nitrate and clotrimazole were dissolved in DMSO and methanol respectively. Other solvents that may be used include caster oil, pyridine, DMSO and 0.9% saline. For IV administration agents may be solubilised in polyethoxylated caster oil, or cyclodextrins such as sulfobutylether7-βcyclodextrin or hydroxypropyl-β-cyclodextrin and lactic acid. Minimum inhibitory concentrations (MICs) of a range of clinical and control bacterial organisms were measured according to BSAC (British Society for Antimicrobial Chemotherapy) guidelines, described briefly as follows;
(§2) Preparation of Agar Plates and Broths
(§3) Stock solutions of each agent were prepared using the formula:
(§4) Where P=μg of active compound per mg (μg/mg) • V=volume required (mL) • C=final concentration of solution (mg/L) • W=weight of agent (mg) to be dissolved in volume V (mL)
(§5) Stock solutions were prepared at concentrations of 1000 mg/L and 100 mg/L. The appropriate amounts of each stock solution were added to separate Petri dishes give the following final concentrations (after the addition of 20 mL molten agar): 128, 64, 32, 16, 8, 4, 2, 1, 0.5, 0.25, 0.12, 0.06, 0.03, 0.015 mg/L.
(§6) Volumes (20 mL) of cooled molten IST agar (oxoid) was added to each Petri dish and mixed by swirling.
(§7) After drying, the plates were stored at 4° C. and protected from light. Plates were used on the day of preparation.
(§8) The test organisms were grown overnight in 5 mL IST broth. Using a dilution in 0.9% saline of 1:500 for Gram-negative organisms and 1:100 for Gram-positive organisms, the appropriate agar plates were inoculated using a multipoint inoculator.
(§9) Plates were incubated at 37° C. in air for 18-20 hours.
(§10) The MIC is the minimum amount of an antibiotic at which there is no visible growth of bacteria. Tiny single colonies or faint hazes were not counted as growth.

Data set [2] concerns Enterococcus faecium (VRE) E15 VanA ATCC 4147. Put plainly: MIC, agar dilution (BSAC guidelines). The data set is classed as cell-based. The note with it: Table 2, E. faecium (VRE) E15 VanA ATCC 4147, read-out: Minimum inhibitory concentration (MIC). As to the method: as §1, §2, §3, §4, §5, §6, §7, §8, §9, §10
The test system of data set [3] is Enterococcus faecium (VRE) E19 UAA/522 VanB. Put plainly: MIC, agar dilution (BSAC guidelines). The data set is classed as cell-based. The settings on record: Table 2, E. faecium (VRE) E19 UAA/522 VanB, read-out: Minimum inhibitory concentration (MIC). How it is done: as §1, §2, §3, §4, §5, §6, §7, §8, §9, §10
Data set [4] has as its system Enterococcus faecium (VRE) NCTC 7171. Put plainly: MIC, agar dilution (BSAC guidelines). The data set is classed as cell-based. The settings on record: Table 2, E. faecium (VRE) NCTC 7171, read-out: Minimum inhibitory concentration (MIC). As to the method: as §1, §2, §3, §4, §5, §6, §7, §8, §9, §10
In data set [5] the test system is Enterococcus faecium (VRE) VanR B145344C LFE. Put plainly: MIC, agar dilution (BSAC guidelines). The data set is classed as cell-based. The note with it: Table 2, E. faecium (VRE) VanR B145344C LFE, read-out: Minimum inhibitory concentration (MIC). How it is done:
as §1, §2, §3, §4, §5, §6, §7, §8, §9, §10

For data set [6], the system named is Escherichia coli NCTC 10418. Put plainly: MIC, agar dilution (BSAC guidelines). The settings on record: NCTC10418, Table 2, E. coli NCTC 10418, read-out: Minimum inhibitory concentration (MIC). The data set is classed as cell-based. How it is done: as §1, §2, §3, §4, §5, §6, §7, §8, §9, §10
The subject of data set [7] is Pseudomonas aeruginosa NCTC 10662. Put plainly: MIC, agar dilution (BSAC guidelines). The data set is classed as cell-based. The note with it: NCTC10662, Table 2, P. aeruginosa NCTC 10662, read-out: Minimum inhibitory concentration (MIC). How it is done: as §1, §2, §3, §4, §5, §6, §7, §8, §9, §10
Data set [8] relates to Staphylococcus epidermidis ATCC 1228. Put plainly: MIC, agar dilution (BSAC guidelines). The data set is classed as cell-based. The settings on record: ATCC1228, Table 2, S. epidermidis ATCC 1228, read-out: Minimum inhibitory concentration (MIC). How it is done: as §1, §2, §3, §4, §5, §6, §7, §8, §9, §10
The test system of data set [9] is VISA, strain USA/VISA 5827. Put plainly: MIC, agar dilution (BSAC guidelines). The data set is classed as cell-based. The note with it: Staphylococcus aureus, Table 2, read-out: Minimum inhibitory concentration (MIC). How it is done:
as §1, §2, §3, §4, §5, §6, §7, §8, §9, §10

For data set [10], the system named is VISA, strain USA/VISA 5836. Put plainly: MIC, agar dilution (BSAC guidelines). The note with it: Staphylococcus aureus, Table 2, read-out: Minimum inhibitory concentration (MIC). The data set is classed as cell-based. How it is done:
as §1, §2, §3, §4, §5, §6, §7, §8, §9, §10

Data set [11] deals with VISA, strain VISA 3900 UK. Put plainly: MIC, agar dilution (BSAC guidelines). The data set is classed as cell-based. The settings on record: Staphylococcus aureus, Table 2, read-out: Minimum inhibitory concentration (MIC). How it is done: as §1, §2, §3, §4, §5, §6, §7, §8, §9, §10
The test system of data set [12] is strains of Staphylococci and Enterococci with reduced susceptibility to vancomycin. Put plainly: Growth inhibition, summary of MIC testing. The note with it: summary in words. The data set is classed as cell-based. As to the method: as §1, §5, §8, §9, §10
The conditions of data set [13]: in vivo; cited from earlier work.

For `CC(=O)N1CCN(c2ccc(OCC3COC(Cn4ccnc4)(c4ccc(Cl)cc4Cl)O3)cc2)CC1` (centres unmarked) [Ketoconazole], the MIC in data set [1] was more than 256 µg/mL; in data set [2] it was 16 µg/mL (≈ 30.1 µM); in data set [3], 128 µg/mL (≈ 241 µM); in [4], 128 µg/mL (≈ 241 µM); in data set [5] it was 128 µg/mL (≈ 241 µM); in data set [6], more than 256 µg/mL. Moreover, the MIC was more than 256 µg/mL in data set [7]; 64 µg/mL (≈ 120 µM) in data set [8]; 64 µg/mL (≈ 120 µM) in [9]; 64 µg/mL (≈ 120 µM) in data set [10]; 64 µg/mL (≈ 120 µM) in data set [11]. Also, in data set [12], the “activity against strains of Staphylococci and Enterococci with reduced susceptibility to vancomycin” value is “did not show this activity”.
In the case of `OC(Cn1cncn1)(Cn1cncn1)c1ccc(F)cc1F` [Fluconazole], the MIC in data set [1], in data set [2], in data set [3], in data set [4], in data set [5] and in [6] was more than 128 µg/mL in each case. For the same compound, the MIC in data set [7], in [8], in data set [9], in data set [10] and in [11] was more than 128 µg/mL throughout. In addition, the “activity against strains of Staphylococci and Enterococci with reduced susceptibility to vancomycin” value in data set [12] is given as “did not show this activity”.
In the case of `c1ccc(-c2ccc(C(c3ccccc3)n3ccnc3)cc2)cc1` (centres unmarked) [Bifonazole], the MIC in data set [1], in data set [2], in data set [3], in data set [4], in data set [5] and in data set [6] was more than 128 µg/mL in each case. Further, the MIC in [7], in data set [8], in [9], in data set [10] and in [11] was more than 128 µg/mL in each case. Moreover, the “activity against strains of Staphylococci and Enterococci with reduced susceptibility to vancomycin” value in data set [12] was “did not show this activity”.
For `Clc1ccc(COC(Cn2ccnc2)c2ccc(Cl)cc2Cl)cc1` (centres unmarked) [econazole nitrate], in data set [13], the systemic absorption entry was “extremely low” and the “topical dose recovered in the urine or faeces” value is recorded as “Less than 1%”.
